In patent US20190358201A1 (NantCell, Inc., priority 2018, published 2019):
Blank lines part the entries; values can stand above or below the compound they belong to.

What was measured:
[1] = LVEF changes, Phase 3 study (P3-STS-01); type: in vivo, human
[2] = cited from earlier work
[3] = LVEF changes, Phase 2 study (INNO-206-P2-STS-01); type: in vivo, human; conditions: for Subjects with LVEF < 50% at any post-baseline cycle / Subjects with a 10% fall in LVEF: Phase 2, doxorubicin median 4 cycles of 75 mg/m^2 (N 40), aldoxorubicin median 6 cycles of 350 mg/m^2 (N 83)
[4] = Sensitivity and worst-case sensitivity analysis of PFS, aldoxorubicin vs doxorubicin (ITT population, independent assessment); type: in vivo, human; conditions: for PFS Events: 42 doxorubicin / 84 aldoxorubicin patients; for HR (95% CI): stratified Cox regression
Protocol: Sensitivity Analysis: To assess the impact of censoring the 8 patients with no baseline imaging at the date of randomization, a sensitivity analysis was conducted where a PFS event was imputed at the date of randomization. This analysis is presented in Table 1 showing the sensitivity analysis of PFS (ITT Population^a).
(§1) PFS is defined as the time from randomization to the date of first objective documentation of disease progression or death (any cause), whichever comes first. CI=Confidence interval; ECOG=Eastern Cooperative Oncology Group; HR=Hazard ratio; PFS=Progression-free survival; PS=Performance status. ^a The ITT Population comprised all randomized patients. ^bP-value is from stratified log-rank test with ECOG PS (0 to 1, 2) and chemotherapy (no prior chemotherapy or prior adjuvant/neoadjuvant chemotherapy) as stratification factors. Hazard ratio and 95% CI are from a Cox regression model stratified by ECOG PS (0 1, 2) and chemotherapy (no prior chemotherapy or prior adjuvant/neoadjuvant chemotherapy).
This analysis is presented in Table 2 (Worst-Case Sensitivity Analysis of PFS (ITT population^a)).
as §1, with “status. ^aThe” for “status. ^a The”, “randomized patients.^b P-value” for “randomized patients. ^bP-value”, “is based on a” for “is from”

[5] = Tolerability of higher total cumulative doses of aldoxorubicin in patients; type: in vivo, human
Protocol: Based on the results above, the inventors investigated whether even higher total cumulative doses of aldoxorubicin could be tolerated. To that end, patients were administered total cumulative dosages of up to 3,000 mg/m^2, up to 4,000 mg/m^2, up to 5,000 mg/m^2, up to 6,000 mg/m^2, up to 7,000 mg/m^2, up to 8,000 mg/m^2, up to 9,000 mg/m^2, up to 10,000 mg/m^2, up to 11,000 mg/m^2, up to 12,000 mg/m^2, up to 13,000 mg/m^2, up to 14,000 mg/m^2, and even higher. […] As described herein, cardiotoxicity may be monitored by monitoring the level of metabolite doxorubicinol in the cardiac cells. Suitable cumulative dosages of aldoxorubicin include those that will not adversely affect LVEF. As such, LVEF of patients receiving aldoxorubicin will typically be in the range of 55% to 70%. Thus, in some embodiments, the patients may have LVEF of 55%-60%, or 60%-65%, or 65%-70%. Less preferably, aldoxorubicin may be administered to the patient until reaching a slightly lower than normal LVEF, say between 50%-54%, or 45%-50%, or 40%-45%.

[6] = Alopecia induction in patients; type: in vivo, human; conditions: aldoxorubicin administered instead of doxorubicin
[7] = system: soft tissue sarcoma; conditions: vs investigator's choice, entire study population; p=0.12, 95% CI 0.64-1.06; cited from earlier work
[8] = Cardiac function by 2D echocardiogram in patients treated for at least 6 cycles of aldoxorubicin (Phase 1/2 with ifosfamide/mesna and Phase 3 alone); type: in vivo, human
Protocol: Fifty-two patients enrolled in a Phase 1/2 study of aldoxorubicin and ifosfamide/mesna and a Phase 3 study using aldoxorubicin alone were treated for at least 6 cycles of aldoxorubicin at either 250 mg/m^2 or 350 mg/m^2 per dose i. v. every 3 weeks. Cardiac function using 2D echocardiogram was evaluated at regular intervals every two cycles of aldoxorubicin until end of treatment and every six months after completion of the treatment.
After treatment, the cumulative aldoxorubicin dose for these patients ranged from […] to 7,500 mg/m^2. […] Ventricular ejection fractions ranged from 45-74% baseline, and 50-77% at end of treatment, median being 60% both at the beginning and end of treatment. Therefore, it should be appreciated that aldoxorubicin lacks cardiotoxicity in these patients treated with aldoxorubicin, alone or in combination with ifosfamide/mesna.

[9] = Formation of doxorubicinol metabolite and pharmacokinetics after administration; conditions: after administration to patients
[10] = Phase 3, doxorubicin N 47, aldoxorubicin N 213
[11] = sensitivity analysis of PFS, text to Table 1 / FIG. 2
[12] = sensitivity analysis, PFS event imputed at randomization for 8 patients without baseline imaging, ITT, independent assessment
[13] = sensitivity analysis, ITT, independent assessment
[14] = worst-case sensitivity analysis, PFS event imputed at date of censoring, ITT
[15] = worst-case sensitivity analysis, ITT, independent assessment

Subjects with LVEF below 50% of any post-baseline visit [1, 10]: 9 (19.1) n (%) | Subjects with LVEF < 50% at any post-baseline cycle [3]: 3 (8.6) n (%) | Subjects with a 10% fall in LVEF [3]: 10 (29.4) n (%)
SMILES: COc1cccc2c1C(=O)c1c(O)c3c(c(O)c1C2=O)C[C@@](O)(C(=O)CO)C[C@@H]3O[C@H]1C[C@H](N)[C@H](O)[C@H](C)O1 [Doxorubicin, reference compound]
Allowable maximum cumulative lifetime dose ([2]; limit set in view of cardiotoxicity): 550 mg/m^2 | Median PFS [4, 11]: 83 days | PFS Events [4, 12]: 29 | Median PFS [4, 13]: 82.0 days | PFS Events [4, 14]: 42 | Median PFS [4, 15]: 48.0 days

SMILES: COc1cccc2c1C(=O)c1c(O)c3c(c(O)c1C2=O)C[C@@](O)(/C(CO)=N/NC(=O)CCCCCN1C(=O)C=CC1=O)C[C@@H]3O[C@H]1C[C@H](N)[C@H](O)[C@H](C)O1 [Aldoxorubicin, (6-maleimidocaproyl) hydrazone derivative of doxorubicin]
Cardiotoxicity ([5]; cumulative dose equivalent to doxorubicin significantly more than 10× 550 mg/m^2): no or substantially reduced cardiotoxicity | Cardiotoxicity ([5]; patients, doxorubicin equivalent doses even beyond 3000 mg/m^2): no cardiotoxicity was observed | Tolerability, cardiotoxicity and/or LVEF ([5]; total cumulative doses of 14,000 mg/m^2): tolerated without any significant effect on cardiotoxicity and/or LVEF | Alopecia induction [6]: minimal alopecia induction | PFS hazard ratio (HR) [7]: 0.81 | Cardiotoxicity ([1]; Phase 3, 350 mg/m^2/cycle, up to 40 cycles, as compared to doxorubicin): minimal or no cardiotoxicity | Subjects with LVEF below 50% of any post-baseline visit [1, 10]: 15 (7) n (%) | Subjects with ≥ 20% LVEF decrease from baseline at any post-baseline visit [1, 10]: 9 (4.2) n (%) | Recommended doxorubicin equivalent dose ([2]; Clin Cancer Res 2007, 13(16)): 260 mg/m^2 | Ventricular ejection fraction, median ([8]; both at the beginning and end of treatment): 60% | Clinical congestive heart failure ([8]; eleven patients with prior doxorubicin, cumulative aldoxorubicin dose 1,000 to 7,500 mg/m^2): no patient developed any sign or symptom of clinical congestive heart failure | Ventricular ejection fraction at end of treatment (range) ([8]; end of treatment, baseline range 45-74%): 50-77% | Cardiac toxicity ([8]; up to doxorubicin equivalent doses of 7,500 mg/m^2, alone or with ifosfamide/mesna): did not find any evidence of cardiac toxicity | Decreases in LVEF (MUGA or echocardiogram) ([3]; Phase 2, aldoxorubicin treatment group): no clinically relevant decreases in LVEF were observed | Subjects with LVEF < 50% at any post-baseline cycle [3]: 0 n (%) | Subjects with a 10% fall in LVEF [3]: 9 (12.2) n (%) | Median PFS [4, 11]: 170 days | HR as stated in text ([4]; sensitivity analysis of PFS, aldoxorubicin vs doxorubicin, p=0.032, 95% CI [0.38, 0.95]): 0.60 | HR (95% CI) ([4]; sensitivity analysis of PFS, aldoxorubicin vs doxorubicin): 0.60 (0.38, 0.95) | PFS Events [4, 12]: 52 | Median PFS [4, 13]: 132.0 days | HR (95% CI) ([4]; worst-case sensitivity analysis of PFS, aldoxorubicin vs doxorubicin): 0.63 (0.43, 0.93) | PFS Events [4, 14]: 84 | Median PFS [4, 15]: 88.5 days | Formation of doxorubicinol [9]: no detectable doxorubicinol | Formation of doxorubicinol ([9]; listed as doxorubicin after modification with N-c-maleimidocaproic acid hydrazide): did not lead to significant quantities of doxorubicinol
